Measured values taken from PubChem BioAssay AID1963833 (Molecular Pharmacology Branch, DTP, NCI, 2024).
pIC50: −log10 of the molar value.

System: 883617-216-R-J1-PDC complex spheroid viability
Experiment: Anticancer human tumor 883617-216-R-J1-PDC patient-derived bladder carcinoma cell line growth inhibition [POLQ]
Conditions: for pIC50: curve of first compound; for viability, T/C: stronger effect = lower value
How it was run: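 Complex spheroid viability model combining PDC tumour cells with endothelial (HUVEC) and MSC stromal cells. Novobiocin, ART-558 or RP6685 were tested singly and in combination with standard and investigational anticancer drugs. Each was titrated in half-log steps from near clinical Cmax, or from 10 microM where Cmax was unknown.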

[1] = second compound 0.0316 µM, first compound 0.0316 µM
[2] = second compound 0.0316 µM, first compound 0.1 µM
[3] = second compound 0.0316 µM, first compound 0.316 µM
[4] = second compound 0.0316 µM, first compound 1 µM
[5] = second compound 0.0316 µM, first compound 3.16 µM
[6] = second compound 0.0316 µM, first compound 10 µM
[7] = second compound 0.1 µM, first compound 0.0316 µM
[8] = second compound 0.1 µM, first compound 0.1 µM
[9] = second compound 0.1 µM, first compound 0.316 µM
[10] = second compound 0.1 µM, first compound 1 µM
[11] = second compound 0.1 µM, first compound 3.16 µM
[12] = second compound 0.1 µM, first compound 10 µM
[13] = second compound 0.316 µM, first compound 0.0316 µM
[14] = second compound 0.316 µM, first compound 0.1 µM
[15] = second compound 0.316 µM, first compound 0.316 µM
[16] = second compound 0.316 µM, first compound 1 µM
[17] = second compound 0.316 µM, first compound 3.16 µM
[18] = second compound 0.316 µM, first compound 10 µM
[19] = second compound 1 µM, first compound 0.0316 µM
[20] = second compound 1 µM, first compound 0.1 µM
[21] = second compound 1 µM, first compound 0.316 µM
[22] = second compound 1 µM, first compound 1 µM
[23] = second compound 1 µM, first compound 3.16 µM
[24] = second compound 1 µM, first compound 10 µM
[25] = second compound 3.16 µM, first compound 0.0316 µM
[26] = second compound 3.16 µM, first compound 0.1 µM
[27] = second compound 3.16 µM, first compound 0.316 µM
[28] = second compound 3.16 µM, first compound 1 µM
[29] = second compound 3.16 µM, first compound 3.16 µM
[30] = second compound 3.16 µM, first compound 10 µM
[31] = second compound 10 µM, first compound 0.0316 µM
[32] = second compound 10 µM, first compound 0.1 µM
[33] = second compound 10 µM, first compound 0.316 µM
[34] = second compound 10 µM, first compound 1 µM
[35] = second compound 10 µM, first compound 3.16 µM
[36] = second compound 10 µM, first compound 10 µM
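Note: spheroids exposed to compounds for seven days before readout.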
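Throughout, for viability, T/C: 100% = DMSO vehicle control viability.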

C=CC(=O)N1CCN(c2nc(=O)n(-c3c(C)ccnc3C(C)C)c3nc(-c4c(O)cccc4F)c(F)cc23)C(C)C1 (stereo unspecified) + COC1C(OC(N)=O)C(O)C(Oc2ccc3c(O)c(NC(=O)c4ccc(O)c(CC=C(C)C)c4)c(=O)oc3c2C)OC1(C)C
pIC50 (second compound 0.0316 µM): < 5.00 | pIC50 (second compound 0.1 µM): < 5.00 | pIC50 (second compound 0.316 µM): < 5.00 | pIC50 (second compound 1 µM): < 5.00 | pIC50 (second compound 3.16 µM): < 5.00 | pIC50 (second compound 10 µM): < 5.00 | viability, T/C [1]: 79.2% | viability, T/C [2]: 77.5% | viability, T/C [3]: 70.8% | viability, T/C [4]: 98.3% | viability, T/C [5]: 81.7% | viability, T/C [6]: 87.6% | viability, T/C [7]: 72.5% | viability, T/C [8]: 68.2% | viability, T/C [9]: 67.3% | viability, T/C [10]: 81.8% | viability, T/C [11]: 102% | viability, T/C [12]: 80.5% | viability, T/C [13]: 70.2% | viability, T/C [14]: 78.7% | viability, T/C [15]: 68.5% | viability, T/C [16]: 73.7% | viability, T/C [17]: 85.5% | viability, T/C [18]: 75.9% | viability, T/C [19]: 81.8% | viability, T/C [20]: 65.9% | viability, T/C [21]: 73.2% | viability, T/C [22]: 78.2% | viability, T/C [23]: 89.9% | viability, T/C [24]: 76.5% | viability, T/C [25]: 78.3% | viability, T/C [26]: 62.4% | viability, T/C [27]: 79.3% | viability, T/C [28]: 69.5% | viability, T/C [29]: 79% | viability, T/C [30]: 76.8% | viability, T/C [31]: 68% | viability, T/C [32]: 60.6% | viability, T/C [33]: 76.5% | viability, T/C [34]: 85.5% | viability, T/C [35]: 84.2% | viability, T/C [36]: 91.4%

CC(C)n1c(=O)n(C)c2cnc3cc(F)c(-c4ccc(OCCCN5CCCCC5)nc4)cc3c21 + COC1C(OC(N)=O)C(O)C(Oc2ccc3c(O)c(NC(=O)c4ccc(O)c(CC=C(C)C)c4)c(=O)oc3c2C)OC1(C)C
pIC50 (second compound 0.0316 µM): < 5.00 | pIC50 (second compound 0.1 µM): < 5.00 | pIC50 (second compound 0.316 µM): < 5.00 | pIC50 (second compound 1 µM): < 5.00 | pIC50 (second compound 3.16 µM): < 5.00 | pIC50 (second compound 10 µM): < 5.00 | viability, T/C [1]: 92.2% | viability, T/C [2]: 94.5% | viability, T/C [3]: 97.4% | viability, T/C [4]: 93.1% | viability, T/C [5]: 88.2% | viability, T/C [6]: 65.1% | viability, T/C [7]: 99% | viability, T/C [8]: 103% | viability, T/C [9]: 93.9% | viability, T/C [10]: 104% | viability, T/C [11]: 91.8% | viability, T/C [12]: 82.6% | viability, T/C [13]: 97% | viability, T/C [14]: 92.2% | viability, T/C [15]: 97.3% | viability, T/C [16]: 101% | viability, T/C [17]: 97% | viability, T/C [18]: 76.3% | viability, T/C [19]: 102% | viability, T/C [20]: 103% | viability, T/C [21]: 108% | viability, T/C [22]: 91.2% | viability, T/C [23]: 94.1% | viability, T/C [24]: 84.5% | viability, T/C [25]: 109% | viability, T/C [26]: 108% | viability, T/C [27]: 110% | viability, T/C [28]: 95.7% | viability, T/C [29]: 95.9% | viability, T/C [30]: 81% | viability, T/C [31]: 106% | viability, T/C [32]: 97.3% | viability, T/C [33]: 102% | viability, T/C [34]: 98.3% | viability, T/C [35]: 78.9% | viability, T/C [36]: 72.8%

CC1COCCN1c1cc(-c2ccnn2C)c2ccnc(-c3ccn[nH]3)c2n1 (stereo unspecified) + COC1C(OC(N)=O)C(O)C(Oc2ccc3c(O)c(NC(=O)c4ccc(O)c(CC=C(C)C)c4)c(=O)oc3c2C)OC1(C)C
pIC50 (second compound 0.0316 µM): 6.53 | pIC50 (second compound 0.1 µM): 6.55 | pIC50 (second compound 0.316 µM): 6.91 | pIC50 (second compound 1 µM): 6.81 | pIC50 (second compound 3.16 µM): 6.81 | pIC50 (second compound 10 µM): 6.86 | viability, T/C [1]: 89.7% | viability, T/C [2]: 63.8% | viability, T/C [3]: 53.1% | viability, T/C [4]: 37% | viability, T/C [5]: 28.1% | viability, T/C [6]: 30.7% | viability, T/C [7]: 83.2% | viability, T/C [8]: 62.9% | viability, T/C [9]: 49.5% | viability, T/C [10]: 37.7% | viability, T/C [11]: 31.7% | viability, T/C [12]: 27% | viability, T/C [13]: 91.2% | viability, T/C [14]: 51% | viability, T/C [15]: 38.6% | viability, T/C [16]: 40.8% | viability, T/C [17]: 33.1% | viability, T/C [18]: 27.3% | viability, T/C [19]: 82.7% | viability, T/C [20]: 54.3% | viability, T/C [21]: 41.7% | viability, T/C [22]: 32.5% | viability, T/C [23]: 26.5% | viability, T/C [24]: 24.4% | viability, T/C [25]: 86.3% | viability, T/C [26]: 53.3% | viability, T/C [27]: 44% | viability, T/C [28]: 34.8% | viability, T/C [29]: 29.6% | viability, T/C [30]: 29.5% | viability, T/C [31]: 91.1% | viability, T/C [32]: 54.4% | viability, T/C [33]: 39.2% | viability, T/C [34]: 32.2% | viability, T/C [35]: 29.8% | viability, T/C [36]: 32.3%
